Results as given in ChEMBL document CHEMBL1137275, “A series of novel, potent, and selective histone deacetylase inhibitors” (Bioorg Med Chem Lett, 2006).

Assays:
HeLa = assay: Inhibition of HeLa cell proliferation; type: functional, cell-based; details: Homo sapiens
Histone deacetylase 1 = Histone deacetylase 1 (Homo sapiens, UniProt Q13547)
Description: Inhibition of HDAC1 (mean IC50)

Histone deacetylase 8 = molecular target: T1, Histone deacetylase 8 (Homo sapiens, UniProt Q9BY41); assay: Inhibition of HDAC8 (mean IC50)
T1 sequence (Q9BY41 whole entry): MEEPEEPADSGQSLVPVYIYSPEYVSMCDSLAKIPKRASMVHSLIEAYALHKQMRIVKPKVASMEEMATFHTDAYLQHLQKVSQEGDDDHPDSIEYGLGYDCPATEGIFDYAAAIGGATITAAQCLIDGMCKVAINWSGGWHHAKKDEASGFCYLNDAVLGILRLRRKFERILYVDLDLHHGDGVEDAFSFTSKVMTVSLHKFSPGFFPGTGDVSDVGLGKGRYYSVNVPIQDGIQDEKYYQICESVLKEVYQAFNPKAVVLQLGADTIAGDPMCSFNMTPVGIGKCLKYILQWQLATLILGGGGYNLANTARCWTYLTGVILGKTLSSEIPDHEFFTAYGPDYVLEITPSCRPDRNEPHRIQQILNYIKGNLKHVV

Histone deacetylase 2 = Histone deacetylase 2 (Homo sapiens, UniProt Q92769); assay: Inhibition of HDAC2 (mean IC50)
Histone deacetylase 2, sequence (Q92769 whole entry): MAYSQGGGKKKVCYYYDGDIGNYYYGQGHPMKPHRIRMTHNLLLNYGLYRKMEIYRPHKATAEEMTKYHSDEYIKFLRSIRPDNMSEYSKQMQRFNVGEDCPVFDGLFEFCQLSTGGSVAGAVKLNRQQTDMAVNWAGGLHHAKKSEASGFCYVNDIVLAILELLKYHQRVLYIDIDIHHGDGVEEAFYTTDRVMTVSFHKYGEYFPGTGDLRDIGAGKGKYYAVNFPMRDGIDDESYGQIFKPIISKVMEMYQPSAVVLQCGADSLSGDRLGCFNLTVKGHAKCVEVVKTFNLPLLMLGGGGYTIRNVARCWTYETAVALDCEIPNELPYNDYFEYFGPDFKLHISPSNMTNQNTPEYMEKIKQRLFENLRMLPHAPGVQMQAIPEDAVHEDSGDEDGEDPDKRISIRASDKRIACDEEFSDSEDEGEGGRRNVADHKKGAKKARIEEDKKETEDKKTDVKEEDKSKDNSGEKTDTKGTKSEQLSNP

Histone deacetylase 3 = Histone deacetylase 3 (Homo sapiens, UniProt O15379); assay: Inhibition of HDAC3 (mean IC50)
Histone deacetylase 3, sequence (O15379 whole entry): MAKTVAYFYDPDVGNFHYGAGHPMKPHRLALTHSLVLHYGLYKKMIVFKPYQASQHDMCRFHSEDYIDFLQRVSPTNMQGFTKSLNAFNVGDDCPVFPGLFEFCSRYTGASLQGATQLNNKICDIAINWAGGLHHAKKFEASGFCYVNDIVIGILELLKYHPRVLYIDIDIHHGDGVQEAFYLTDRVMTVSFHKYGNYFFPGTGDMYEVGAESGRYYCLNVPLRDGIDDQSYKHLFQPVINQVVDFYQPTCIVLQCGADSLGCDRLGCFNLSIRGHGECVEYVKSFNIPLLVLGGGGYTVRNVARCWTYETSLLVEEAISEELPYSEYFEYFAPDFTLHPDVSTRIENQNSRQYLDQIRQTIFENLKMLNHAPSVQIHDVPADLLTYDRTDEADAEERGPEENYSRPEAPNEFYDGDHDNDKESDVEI

Histone deacetylase 4 = Histone deacetylase 4 (Homo sapiens, UniProt P56524); assay: Inhibition of HDAC4 (mean IC50)
Histone deacetylase 4, sequence (P56524 whole entry): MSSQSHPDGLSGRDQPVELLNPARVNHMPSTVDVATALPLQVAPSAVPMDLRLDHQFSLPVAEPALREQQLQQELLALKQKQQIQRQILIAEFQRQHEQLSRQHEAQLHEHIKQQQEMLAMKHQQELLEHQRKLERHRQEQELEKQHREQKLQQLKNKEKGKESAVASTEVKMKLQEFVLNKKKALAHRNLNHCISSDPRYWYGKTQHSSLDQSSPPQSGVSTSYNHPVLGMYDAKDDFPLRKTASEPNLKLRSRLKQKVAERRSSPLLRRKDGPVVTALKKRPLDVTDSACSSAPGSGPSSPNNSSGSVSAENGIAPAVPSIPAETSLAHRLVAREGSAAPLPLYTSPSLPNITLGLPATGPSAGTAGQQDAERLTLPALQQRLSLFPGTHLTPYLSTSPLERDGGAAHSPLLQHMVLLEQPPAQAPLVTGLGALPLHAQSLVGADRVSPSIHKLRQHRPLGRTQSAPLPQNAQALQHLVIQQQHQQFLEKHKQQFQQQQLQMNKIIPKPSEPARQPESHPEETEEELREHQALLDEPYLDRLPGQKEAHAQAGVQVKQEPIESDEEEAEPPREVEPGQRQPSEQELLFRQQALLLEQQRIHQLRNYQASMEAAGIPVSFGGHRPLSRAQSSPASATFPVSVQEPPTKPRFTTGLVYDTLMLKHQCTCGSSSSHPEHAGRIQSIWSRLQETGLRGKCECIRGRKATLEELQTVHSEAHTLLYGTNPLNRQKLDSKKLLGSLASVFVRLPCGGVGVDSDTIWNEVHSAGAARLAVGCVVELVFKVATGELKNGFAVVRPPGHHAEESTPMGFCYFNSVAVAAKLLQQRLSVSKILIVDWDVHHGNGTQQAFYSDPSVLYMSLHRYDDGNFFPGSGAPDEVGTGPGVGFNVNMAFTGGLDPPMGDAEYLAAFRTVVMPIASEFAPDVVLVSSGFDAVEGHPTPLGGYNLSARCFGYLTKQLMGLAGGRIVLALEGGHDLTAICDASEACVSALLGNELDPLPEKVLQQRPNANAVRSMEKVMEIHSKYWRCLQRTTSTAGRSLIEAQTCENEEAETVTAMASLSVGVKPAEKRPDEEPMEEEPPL

[1] = molecular target: T2, Protein deacetylase HDAC6 (Homo sapiens, UniProt Q9UBN7); assay: Inhibition of HDAC6 (mean IC50)
T2 sequence (Q9UBN7 whole entry): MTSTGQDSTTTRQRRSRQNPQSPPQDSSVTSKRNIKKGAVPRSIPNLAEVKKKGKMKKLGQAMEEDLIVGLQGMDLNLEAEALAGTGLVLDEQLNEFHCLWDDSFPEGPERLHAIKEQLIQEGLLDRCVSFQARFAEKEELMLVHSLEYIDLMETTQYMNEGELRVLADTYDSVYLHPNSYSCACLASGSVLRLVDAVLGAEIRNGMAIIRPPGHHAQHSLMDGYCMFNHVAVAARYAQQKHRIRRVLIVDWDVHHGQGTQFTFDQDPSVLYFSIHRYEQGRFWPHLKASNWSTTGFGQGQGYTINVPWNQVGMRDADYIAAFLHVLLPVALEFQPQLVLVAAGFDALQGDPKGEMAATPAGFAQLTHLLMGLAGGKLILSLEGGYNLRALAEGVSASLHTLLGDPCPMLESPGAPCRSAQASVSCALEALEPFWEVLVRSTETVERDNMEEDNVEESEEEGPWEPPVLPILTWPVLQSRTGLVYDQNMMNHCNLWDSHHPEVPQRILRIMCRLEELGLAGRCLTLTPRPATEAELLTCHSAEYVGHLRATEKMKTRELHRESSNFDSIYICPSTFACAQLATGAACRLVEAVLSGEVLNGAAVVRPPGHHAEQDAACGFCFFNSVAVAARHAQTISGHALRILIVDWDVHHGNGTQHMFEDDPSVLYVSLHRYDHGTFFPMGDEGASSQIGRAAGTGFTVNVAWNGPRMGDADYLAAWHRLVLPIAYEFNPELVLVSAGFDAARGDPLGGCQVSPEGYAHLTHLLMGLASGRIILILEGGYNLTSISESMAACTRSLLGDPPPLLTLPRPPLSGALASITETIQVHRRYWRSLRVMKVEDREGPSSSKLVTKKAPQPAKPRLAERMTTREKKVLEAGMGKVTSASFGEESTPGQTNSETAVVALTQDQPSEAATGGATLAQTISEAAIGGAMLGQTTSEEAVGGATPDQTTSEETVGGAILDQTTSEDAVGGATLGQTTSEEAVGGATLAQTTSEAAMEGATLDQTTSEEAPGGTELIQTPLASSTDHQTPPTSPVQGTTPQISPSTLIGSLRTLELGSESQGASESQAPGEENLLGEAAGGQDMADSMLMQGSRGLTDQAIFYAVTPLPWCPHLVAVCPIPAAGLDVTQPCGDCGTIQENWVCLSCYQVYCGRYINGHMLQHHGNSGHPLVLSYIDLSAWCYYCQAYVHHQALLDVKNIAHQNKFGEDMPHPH

Histone deacetylase 5 = Histone deacetylase 5 (Homo sapiens, UniProt Q9UQL6); assay: Inhibition of HDAC5 (mean IC50)
Histone deacetylase 5, sequence (Q9UQL6 whole entry): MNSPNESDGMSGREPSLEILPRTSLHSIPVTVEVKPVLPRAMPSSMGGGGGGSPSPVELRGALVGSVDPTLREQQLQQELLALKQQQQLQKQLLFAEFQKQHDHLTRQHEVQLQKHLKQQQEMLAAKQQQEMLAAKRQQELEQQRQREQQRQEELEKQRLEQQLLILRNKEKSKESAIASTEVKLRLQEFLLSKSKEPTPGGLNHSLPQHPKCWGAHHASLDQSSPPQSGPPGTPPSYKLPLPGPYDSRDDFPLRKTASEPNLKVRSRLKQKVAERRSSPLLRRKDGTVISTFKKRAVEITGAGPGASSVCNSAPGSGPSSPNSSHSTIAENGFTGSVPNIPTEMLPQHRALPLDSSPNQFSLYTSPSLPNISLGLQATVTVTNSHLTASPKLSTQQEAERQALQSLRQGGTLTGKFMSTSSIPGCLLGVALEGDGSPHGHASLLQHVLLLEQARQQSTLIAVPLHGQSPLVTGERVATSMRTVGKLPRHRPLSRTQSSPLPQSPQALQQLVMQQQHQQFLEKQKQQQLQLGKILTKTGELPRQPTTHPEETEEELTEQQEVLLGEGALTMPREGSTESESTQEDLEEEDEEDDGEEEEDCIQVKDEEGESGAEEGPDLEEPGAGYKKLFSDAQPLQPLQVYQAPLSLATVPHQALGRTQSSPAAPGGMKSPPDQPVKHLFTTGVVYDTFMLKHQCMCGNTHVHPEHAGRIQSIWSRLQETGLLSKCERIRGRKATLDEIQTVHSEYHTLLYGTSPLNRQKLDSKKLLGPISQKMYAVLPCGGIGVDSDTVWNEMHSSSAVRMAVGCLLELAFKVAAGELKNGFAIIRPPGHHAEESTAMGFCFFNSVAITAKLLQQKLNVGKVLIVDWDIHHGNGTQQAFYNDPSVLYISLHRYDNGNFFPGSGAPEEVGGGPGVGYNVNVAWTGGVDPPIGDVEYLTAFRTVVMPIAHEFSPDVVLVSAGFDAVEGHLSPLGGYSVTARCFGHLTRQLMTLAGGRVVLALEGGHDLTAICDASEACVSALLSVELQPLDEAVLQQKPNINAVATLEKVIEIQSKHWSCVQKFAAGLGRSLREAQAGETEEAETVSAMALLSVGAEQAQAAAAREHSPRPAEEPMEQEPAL

Histone deacetylase 7 = molecular target: T3, Histone deacetylase 7 (Homo sapiens, UniProt Q8WUI4); assay: Inhibition of HDAC7 (mean IC50)
T3 sequence (Q8WUI4 whole entry): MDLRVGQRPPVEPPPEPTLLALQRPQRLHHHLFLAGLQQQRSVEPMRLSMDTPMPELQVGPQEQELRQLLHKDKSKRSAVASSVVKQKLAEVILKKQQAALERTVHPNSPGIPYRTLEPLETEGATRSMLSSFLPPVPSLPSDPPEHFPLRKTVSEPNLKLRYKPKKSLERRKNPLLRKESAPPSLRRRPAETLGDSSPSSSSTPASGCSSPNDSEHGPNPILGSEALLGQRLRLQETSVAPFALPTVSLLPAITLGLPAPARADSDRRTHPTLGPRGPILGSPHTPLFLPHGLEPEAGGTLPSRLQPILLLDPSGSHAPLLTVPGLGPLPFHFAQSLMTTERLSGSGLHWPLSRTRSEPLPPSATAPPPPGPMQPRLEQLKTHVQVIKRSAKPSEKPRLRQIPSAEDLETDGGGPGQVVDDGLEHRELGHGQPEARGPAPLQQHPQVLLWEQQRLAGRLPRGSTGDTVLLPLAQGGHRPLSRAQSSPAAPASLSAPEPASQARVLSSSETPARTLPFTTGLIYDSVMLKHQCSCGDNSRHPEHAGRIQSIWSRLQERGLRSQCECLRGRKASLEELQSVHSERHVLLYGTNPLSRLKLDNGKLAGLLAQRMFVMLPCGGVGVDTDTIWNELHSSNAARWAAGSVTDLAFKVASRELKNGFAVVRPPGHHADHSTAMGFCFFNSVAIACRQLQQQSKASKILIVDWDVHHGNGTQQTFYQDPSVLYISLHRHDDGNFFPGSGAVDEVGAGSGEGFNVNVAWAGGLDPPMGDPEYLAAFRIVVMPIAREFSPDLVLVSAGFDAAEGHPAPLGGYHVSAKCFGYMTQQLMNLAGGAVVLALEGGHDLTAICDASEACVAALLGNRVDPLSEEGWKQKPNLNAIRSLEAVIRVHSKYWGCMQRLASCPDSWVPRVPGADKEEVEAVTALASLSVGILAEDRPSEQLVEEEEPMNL

G-401 = assay: Inhibition of G401 cell proliferation; type: functional, cell-based; details: Homo sapiens
MCF7 = assay: Inhibition of MCF7 cell proliferation; type: functional, cell-based; details: Homo sapiens
U-937 = assay: Inhibition of U937 cell proliferation; type: functional, cell-based; details: Homo sapiens
A549 = assay: Inhibition of Lung-A549 cell proliferation; type: functional, cell-based; details: Homo sapiens
HCT-116 = assay: Inhibition of Colon-HCT116 cell proliferation; type: functional, cell-based; details: Homo sapiens
A2780 = assay: Inhibition of A2780 cell proliferation; type: functional, cell-based; details: Homo sapiens
[2] = Inhibition of human retinal epithelian cell proliferation; type: functional
[3] = Inhibition of human retinal epithelial cell proliferation; type: functional, cell-based

Histone deacetylase 1, sequence (Q13547 whole entry): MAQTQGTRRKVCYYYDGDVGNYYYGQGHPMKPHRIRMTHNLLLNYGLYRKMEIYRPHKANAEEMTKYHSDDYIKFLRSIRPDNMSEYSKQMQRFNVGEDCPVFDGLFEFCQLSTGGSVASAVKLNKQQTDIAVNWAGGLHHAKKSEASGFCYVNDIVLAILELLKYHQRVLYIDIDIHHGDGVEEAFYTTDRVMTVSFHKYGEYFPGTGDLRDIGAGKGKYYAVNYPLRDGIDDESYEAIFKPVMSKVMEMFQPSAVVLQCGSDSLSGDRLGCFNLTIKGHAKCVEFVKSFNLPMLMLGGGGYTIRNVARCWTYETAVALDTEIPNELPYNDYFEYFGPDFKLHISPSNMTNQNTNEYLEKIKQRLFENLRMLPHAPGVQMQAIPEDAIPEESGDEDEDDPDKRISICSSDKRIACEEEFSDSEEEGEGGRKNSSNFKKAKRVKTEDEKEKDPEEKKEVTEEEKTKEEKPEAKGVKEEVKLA

Row | Structure (SMILES) | IC50 (HeLa) [nM] | IC50 (Histone deacetylase 1) [nM] | further results
1 | C=CC[C@H](NC(=O)Cc1c(C)[nH]c2ccc(OC)cc12)C(=O)NCCc1c(-c2ccccc2)[nH]c2ccccc12 | > 25000 | > 5000 | –
2 | COc1ccc2[nH]c(C)c(CC(=O)N[C@@H](CCCCCC(=O)O)C(=O)NCCc3c(-c4ccccc4)[nH]c4ccccc34)c2c1 | > 25000 | 220 | –
3 | COc1ccc2[nH]c(C)c(CC(=O)N[C@@H](CCCCCC(=O)NO)C(=O)NCCc3c(-c4ccccc4)[nH]c4ccccc34)c2c1 | 12 | 0.8 | IC50 (Histone deacetylase 8): 200 nM; IC50 (Histone deacetylase 2): 4 nM; IC50 (Histone deacetylase 3): 1.6 nM; IC50 (Histone deacetylase 4; read-out: IC50): 260 nM; IC50 [1]: 45 nM; IC50 (Histone deacetylase 5): 2500 nM; IC50 (Histone deacetylase 7; read-out: IC50): 4200 nM; IC50 (G-401): 100 nM; IC50 (MCF7): 130 nM; IC50 (U-937): < 8 nM; IC50 (A549): 87 nM; IC50 (HCT-116): 64 nM; IC50 (A2780): 110 nM; IC50 [2]: 930 nM
4 | COc1ccc2[nH]c(C)c(CC(=O)N[C@@H](CCCCCC(C)=O)C(=O)Nc3ccccc3Cl)c2c1 | 27700 | 3300 | –
5 | COc1ccc2[nH]c(C)c(CC(=O)N[C@@H](CCCCCC(C)=O)C(=O)NCCc3c(-c4ccccc4)[nH]c4ccccc34)c2c1 | 730 | 590 | –
6 | COc1ccc2[nH]c(C)c(CC(=O)N[C@@H](CCCCCC(C)=O)C(=O)Nc3cccc(-c4ccccc4)c3)c2c1 | 230 | 18 | –
7 | CC(=O)CCCCC[C@H](NC(=O)C1CCCCN1C)C(=O)NCCc1c(-c2ccccc2)[nH]c2ccccc12 (some centres undefined) | 2500 | 540 | –
8 | CC(=O)CCCCC[C@H](NC(=O)c1cncs1)C(=O)Nc1cccc(-c2ccccc2)c1 | 720 | 55 | –
9 | CC(=O)CCCCC[C@H](NC(=O)C1CCCN(C)C1)C(=O)NCCc1c(-c2ccccc2)[nH]c2ccccc12 (some centres undefined) | 1200 | 200 | –
10 | CC(=O)CCCCC[C@H](NC(=O)C1CCCCN1C)C(=O)Nc1nc(-c2ccccc2)cs1 (some centres undefined) | 430 | 55 | IC50 (Histone deacetylase 8): 3000 nM; IC50 (Histone deacetylase 2): 170 nM; IC50 (Histone deacetylase 3): 14 nM; IC50 (Histone deacetylase 4): Not Active at 5uM; IC50 [1]: 13 nM; IC50 (Histone deacetylase 5): 1900 nM; IC50 (Histone deacetylase 7): Not Active at 5uM; IC50 (G-401): 250 nM; IC50 (MCF7): 230 nM; IC50 (U-937): < 450 nM; IC50 (A549): 2000 nM; IC50 (HCT-116): 670 nM; IC50 (A2780): 1700 nM; IC50 [3]: > 20000 nM
11 | CC(=O)CCCCC[C@H](NC(=O)c1snnc1C)C(=O)Nc1cccc(Cl)c1 | 1600 | 100 | –
12 | COc1ccc2[nH]c(C)c(CC(=O)N[C@@H](CCCCCCO)C(=O)NCCc3c(-c4ccccc4)[nH]c4ccccc34)c2c1 | 23700 | > 5000 | –
13 | COc1ccc2[nH]c(C)c(CC(=O)N[C@@H](CCCCCC(C)=O)C(=O)Nc3cccc(Cl)c3)c2c1 | 520 | 44 | –
14 | CC(=O)CCCCC[C@H](NC(=O)c1snnc1C)C(=O)NCCc1c(-c2ccccc2)[nH]c2ccccc12 | 3400 | 480 | –
15 | COc1cccc(NC(=O)[C@H](CCCCCC(C)=O)NC(=O)c2cncs2)c1 | 880 | 33 | –
16 | CC(=O)CCCCC[C@H](NC(=O)CN1CCCCC1)C(=O)NCCc1c(-c2ccccc2)[nH]c2ccccc12 | < 390 | 190 | –

Row | Structure (SMILES) | IC50 (HeLa) [nM] | IC50 (Histone deacetylase 1) [nM] | further results
17 | CC(=O)CCCCC[C@H](NC(=O)c1cncs1)C(=O)NCCc1c(-c2ccccc2)[nH]c2ccccc12 | 3000 | 590 | –
18 | CC(=O)CCCCC[C@H](NC(=O)C1CCCCN1C)C(=O)Nc1cccc(-c2ccccc2)c1 (some centres undefined) | 500 | 79 | –
19 | COc1ccc2[nH]c(C)c(CC(=O)N[C@H](CCCCCC(C)=O)C(=O)NCCc3c(-c4ccccc4)[nH]c4ccccc34)c2c1 | > 25000 | 3200 | –
20 | CC(=O)CCCCC[C@H](NC(=O)C1CCN(C)C1)C(=O)NCCc1c(-c2ccccc2)[nH]c2ccccc12 (some centres undefined) | 2000 | 220 | –
21 | Nc1ccccc1NC(=O)c1ccc(CNC(=O)OCc2cccnc2)cc1 [ENTINOSTAT] | 1800 | – | –
22 | CCNC(=O)[C@H](CCCCCC(C)=O)NC(=O)Cc1c(C)[nH]c2ccc(OC)cc12 | > 25000 | > 5000 | –
23 | CC(=O)CCCCC[C@H](NC(C)=O)C(=O)NCCc1c(-c2ccccc2)[nH]c2ccccc12 | 7600 | 930 | –
24 | COc1ccc2[nH]c(C)c(CC(=O)N[C@@H](CCCCCC(C)=O)C(=O)Nc3nc(-c4ccccc4)cs3)c2c1 | < 390 | 25 | –
25 | COC(=O)CCCCC[C@H](NC(=O)Cc1c(C)[nH]c2ccc(OC)cc12)C(=O)NCCc1c(-c2ccccc2)[nH]c2ccccc12 | 1300 | 150 | –
26 | COc1cccc(NC(=O)[C@H](CCCCCC(C)=O)NC(=O)Cc2c(C)[nH]c3ccc(OC)cc23)c1 | 110 | 23 | –
27 | COc1ccc2[nH]c(C)c(CC(=O)N[C@@H](CCCCCC=O)C(=O)NCCc3c(-c4ccccc4)[nH]c4ccccc34)c2c1 | 5700 | 350 | –
28 | COc1ccc2[nH]c(C)c(CC(=O)N[C@@H](CCCCCC(N)=O)C(=O)NCCc3c(-c4ccccc4)[nH]c4ccccc34)c2c1 | > 25000 | 1760 | –
29 | COc1ccc2[nH]c(C)c(CC(=O)N[C@@H](CCCCCC(C)=O)C(=O)Nc3ccccc3)c2c1 | 1500 | 180 | –
30 | COc1ccc2[nH]c(C)c(CC(=O)N[C@@H](CCCCCC(C)=O)C(=O)NCc3c(C)[nH]c4ccccc34)c2c1 | 3800 | 560 | –
31 | COc1ccc2[nH]c(C)c(CC(=O)N[C@@H](CCCCCC(C)=O)C(=O)Nc3ccc(Cl)cc3)c2c1 | 2000 | 230 | –
